Structures can show the parent of a compound that is named as a salt.
How the values were obtained:
[1] = system: CCI-induced cold hypersensitivity in Sprague Dawley rats; experiment: Chronic constriction injury (CCI)-induced neuropathic pain, acetone-induced cold hypersensitivity; format: in vivo; settings: po; rat CCI; 10 mg/kg p.o.; 3 h post-dose; read-out: % Inhibition (acetone-evoked paw withdrawals)
From the text: Male Sprague Dawley rats (225-450 g; n=5-8/treatment) were used to evaluate the ability of selected compounds of the Formula (I) to reverse CCI-induced cold hypersensitivity. Four loose ligatures of 4-0 chromic gut were surgically placed around the left sciatic nerve under inhalation anesthesia as described by Bennett et al. (Bennett, G. J.; Xie, Y. K. Pain 1988, 33(1), 87-107). Fourteen to 35 days following CCI surgery, subjects were placed in elevated observation chambers containing wire mesh floors and five applications of acetone (0.05 mL/application separated by approximately 5 minutes) were spritzed onto the plantar surface of the paw using a multidose syringe. An abrupt withdrawal or lifting of the paw was considered a positive response. The number of positive responses was recorded for each rat over the five trials. Following baseline withdrawal determinations, compounds of Formula (I) are administered in an appropriate vehicle, such as hydroxypropyl-β-cyclodextrin ([…]), methylcellulose, Methocel, 10% Solutol, or H2O, or the like, by the appropriate route, i.p. or p.o. The number of withdrawals were redetermined 1 to 3 h after compound administration. Results are presented as a percent inhibition of shakes, which was calculated for each subject as [1−(test compound withdrawals/pre-test withdrawals)]×100 and then averaged by treatment.

[2] = system: icilin-induced "wet-dog" shakes in Sprague Dawley rats; experiment: Reversal of icilin-induced "wet-dog" shakes in rats; format: in vivo; settings: po; rat; 10 mg/kg p.o.; 1 h post-icilin
canine TRPM8 = target: T1, canine TRPM8 (Canis lupus familiaris, UniProt Q1A7N1); experiment: In vitro canine TRPM8 functional assay (icilin-induced intracellular Ca2+, FLIPR/FDSS);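 as to all read-outs here: intracellular Ca2+ tracked with a Ca2+-sensitive fluorescent dye, compound applied 5 min before icilin was added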; format: cell-based; settings: HEK293 cells stably expressing canine TRPM8; for inhibition at 0.2 µM: 0.200 μM compound, icilin challenge (~80% maximal response), read-out: % Inh. @ 0.200 μM; for IC50: icilin challenge, eight-point dose-response
T1 construct: expressed in transfected cells
T1 sequence (Q1A7N1 1-1104): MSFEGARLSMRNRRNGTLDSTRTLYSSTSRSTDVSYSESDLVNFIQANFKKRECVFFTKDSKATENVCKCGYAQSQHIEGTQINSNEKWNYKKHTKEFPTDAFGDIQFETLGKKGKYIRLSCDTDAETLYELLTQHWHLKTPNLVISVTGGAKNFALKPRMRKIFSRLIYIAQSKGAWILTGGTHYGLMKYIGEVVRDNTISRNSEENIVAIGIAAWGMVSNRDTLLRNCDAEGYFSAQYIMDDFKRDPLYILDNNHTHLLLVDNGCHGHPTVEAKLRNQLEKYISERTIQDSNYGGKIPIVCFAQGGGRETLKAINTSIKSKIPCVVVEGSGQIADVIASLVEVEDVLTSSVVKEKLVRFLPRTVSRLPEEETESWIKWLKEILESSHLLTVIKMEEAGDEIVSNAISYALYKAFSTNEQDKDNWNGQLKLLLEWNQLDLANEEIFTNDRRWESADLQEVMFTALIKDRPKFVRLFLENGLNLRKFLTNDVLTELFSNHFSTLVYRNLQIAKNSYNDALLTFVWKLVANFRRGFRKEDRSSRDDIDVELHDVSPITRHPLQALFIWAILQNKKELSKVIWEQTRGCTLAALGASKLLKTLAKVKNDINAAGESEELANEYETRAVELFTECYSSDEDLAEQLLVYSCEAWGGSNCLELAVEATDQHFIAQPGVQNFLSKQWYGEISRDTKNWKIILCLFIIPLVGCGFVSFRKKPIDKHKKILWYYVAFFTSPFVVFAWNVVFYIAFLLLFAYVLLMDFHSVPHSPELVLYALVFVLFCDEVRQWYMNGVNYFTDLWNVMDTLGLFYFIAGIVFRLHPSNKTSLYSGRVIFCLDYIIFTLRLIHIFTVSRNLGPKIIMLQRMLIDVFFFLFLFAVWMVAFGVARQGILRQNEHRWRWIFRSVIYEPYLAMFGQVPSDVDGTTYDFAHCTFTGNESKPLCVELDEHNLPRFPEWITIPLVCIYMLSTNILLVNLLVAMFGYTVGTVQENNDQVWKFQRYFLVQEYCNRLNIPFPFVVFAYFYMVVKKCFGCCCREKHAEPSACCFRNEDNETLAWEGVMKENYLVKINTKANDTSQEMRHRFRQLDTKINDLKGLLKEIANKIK

Structure (SMILES) | inhibition in vivo at 10 mg/kg [1] [%] | inhibition in vivo at 10 mg/kg [2] [%] | inhibition at 0.2 µM (canine TRPM8) [%] | IC50 (canine TRPM8) [nM]
FC(F)(F)c1ccccc1-c1ccc2nc(C3=NOC4(CCCCC4)C3)[nH]c2c1 [Cpd 1, 3-[5-(2-Trifluoromethyl-phenyl)-1H-benzimidazol-2-yl]-1-oxa-2-aza-spiro[4.5]dec-2-ene] | 65 |  |  | 
FC(F)(F)Oc1ccccc1-c1ccc2[nH]c(C3=NOC4(CCCCC4)C3)nc2c1 [Cpd 7, 3-[5-(2-Trifluoromethoxy-phenyl)-1H-benzimidazol-2-yl]-1-oxa-2-aza-spiro[4.5]dec-2-ene hydrochloride] | 83 | > 96 |  | 
Fc1cccc(OC(F)(F)F)c1-c1ccc2[nH]c(C3=NOC4(CCCCC4)C3)nc2c1 [Cpd 8, 3-[5-(2-Fluoro-6-trifluoromethoxy-phenyl)-1H-benzimidazol-2-yl]-1-oxa-2-aza-spiro[4.5]dec-2-ene hydrochloride] |  | > 96 |  | 
FC(F)(F)c1ccccc1-c1cc(Cl)c2[nH]c(C3=NOC4(CCCCC4)C3)nc2c1 [Cpd 16, 3-[7-Chloro-5-(2-trifluoromethylphenyl)-1H-benzimidazol-2-yl]-1-oxa-2-aza-spiro[4.5]dec-2-ene hydrochloride] | 82.5 | > 99 |  | 
FC(F)(F)c1ccccc1-c1cc(C(F)(F)F)c2[nH]c(C3=NOC4(CCCCC4)C3)nc2c1 [Cpd 27, 3-[7-Trifluoromethyl-5-(2-trifluoromethyl-phenyl)-1H-benzimidazol-2-yl]-1-oxa-2-aza-spiro[4.5]dec-2-ene hydrochloride] | 83 | > 99 | 100 | 
CC1C(c2nc3cc(-c4ccccc4C(F)(F)F)cc(C(F)(F)F)c3[nH]2)=NOC12CCCCC2 (stereo not shown) [Cpd 28, 4-Methyl-3-[7-trifluormethyl-5-(2-trifluoromethyl-phenyl)-1H-benzimidazol-2-yl]-1-oxa-2-aza-spiro[4.5]dec-2-ene hydrochloride] |  | 30 | 101 | 1.1
FC(F)(F)c1cc(-c2ccccc2Cl)cc2nc(C3=NOC4(CCCCC4)C3)[nH]c12 [Cpd 30, 3-[5-(2-Chloro-phenyl)-7-trifluoromethyl-1H-benzimidazol-2-yl]-1-oxa-2-aza-spiro[4.5]dec-2-ene hydrochloride] | 62.9 | > 98 | 97 | 
FC(F)(F)Oc1ccccc1-c1cc(C(F)(F)F)c2[nH]c(C3=NOC4(CCCCC4)C3)nc2c1 [Cpd 51, 3-[5-(2-Trifluoromethoxyphenyl)-7-trifluoromethyl-1H-benzimidazol-2-yl]-1-oxa-2-aza-spiro[4.5]dec-2-ene hydrochloride] | 57.1 | > 98 | 97 | 
Fc1ccccc1-c1cc(C(F)(F)F)c2[nH]c(C3=NOC4(CCCCC4)C3)nc2c1 [Cpd 53, 3-[5-(2-Fluorophenyl)-7-trifluoromethyl-1H-benzimidazol-2-yl]-1-oxa-2-aza-spiro[4.5]dec-2-ene hydrochloride] | 42.9 | > 98 | 97 | 
Cc1c(-c2ccccc2C(F)(F)F)cc(C)c2[nH]c(C3=NOC4(CCCCC4)C3)nc12 [Cpd 54, 3-[4,7-Dimethyl-5-(2-trifluoromethylphenyl)-1H-benzimidazol-2-yl]-1-oxa-2-aza-spiro[4.5]dec-2-ene hydrochloride] |  |  | 97 | 5.8
Cc1c(-c2ccccc2C(F)(F)F)cc(Cl)c2[nH]c(C3=NOC4(CCCCC4)C3)nc12 [Cpd 55, 3-[7-Chloro-4-methyl-5-(2-trifluoromethylphenyl)-1H-benzimidazol-2-yl]-1-oxa-2-aza-spiro[4.5]dec-2-ene hydrochloride] |  |  | 97 | 4.7
FC(F)(F)c1ccccc1-c1ccc2[nH]c(C3=NOC4(CCCCC4)C3)nc2n1 [Cpd 56, 2-(1-Oxa-2-aza-spiro[4.5]dec-2-en-3-yl)-5-(2-trifluoromethyl-phenyl)-1H-imidazo[4,5-b]pyridine hydrochloride] |  |  | 101 | 4.6
FC(F)(F)c1ccccc1-c1cc2nc(C3=NOC4(CCCCC4)C3)[nH]c2cn1 [Cpd 57, 2-(1-Oxa-2-aza-spiro[4.5]dec-2-en-3-yl)-6-(2-trifluoromethyl-phenyl)-3H-imidazo[4,5-c]pyridine hydrochloride] |  |  | 102 | 2.7
FC(F)(F)c1ccccc1-c1cnc2[nH]c(C3=NOC4(CCCCC4)C3)nc2c1 [Cpd 58, 2-(1-Oxa-2-aza-spiro[4.5]dec-2-en-3-yl)-6-(2-trifluoromethyl-phenyl)-3H-imidazo[4,5-b]pyridine hydrochloride] |  |  | 101 | 2
